Measured values: the NIST ThermoML archive (doi:10.1016/j.jct.2008.04.013)
Values joined by “and” are separate entries in the source; they are usually repeats but may differ in a detail not shown here. Equal entries are not always repeated.

Conditions: Liquid, Calculated from knudsen effusion weight loss

Cc1ccc(C(=O)O)s1 [5-methyl-2-thiophenecarboxylic acid]
Conditions | vapor or sublimation pressure
316.29 K | 9e-05 kPa and 8.8e-05 kPa and 8.9e-05 kPa
318.25 K | 0.000113 kPa and 0.000112 kPa and 0.00011 kPa
320.12 K | 0.000139 kPa
322.28 K | 0.00018 kPa and 0.000183 kPa
324.24 K | 0.000229 kPa and 0.000226 kPa and 0.000222 kPa
326.12 K | 0.000273 kPa and 0.000278 kPa and 0.000276 kPa
328.28 K | 0.000341 kPa and 0.000356 kPa and 0.000355 kPa
330.22 K | 0.000441 kPa and 0.000439 kPa and 0.000427 kPa
332.11 K | 0.00054 kPa and 0.000539 kPa
334.28 K | 0.0007 kPa and 0.000697 kPa and 0.00069 kPa
336.22 K | 0.000859 kPa and 0.000855 kPa and 0.000843 kPa
338.11 K | 0.001049 kPa and 0.001053 kPa and 0.001028 kPa

Cc1ccsc1C(=O)O [3-methyl-2-thiophenecarboxylic acid]
Conditions | vapor or sublimation pressure
312.13 K | 0.000104 kPa and 0.000102 kPa
314.2 K | 0.000129 kPa and 0.00013 kPa and 0.000126 kPa
316.22 K | 0.000164 kPa and 0.000162 kPa and 0.000159 kPa
318.13 K | 0.000205 kPa and 0.000204 kPa and 0.000209 kPa
320.19 K | 0.000264 kPa and 0.000261 kPa and 0.000254 kPa
322.21 K | 0.000323 kPa and 0.00032 kPa and 0.000314 kPa
324.14 K | 0.000412 kPa and 0.000407 kPa and 0.000418 kPa
326.18 K | 0.000507 kPa and 0.000503 kPa
328.21 K | 0.000636 kPa and 0.00063 kPa
330.15 K | 0.000798 kPa and 0.000786 kPa and 0.000769 kPa
332.23 K | 0.000984 kPa and 0.000972 kPa and 0.00094 kPa
334.2 K | 0.001191 kPa and 0.001174 kPa and 0.001146 kPa

CC(=O)c1ccc(C(=O)O)s1 [5-acetyl-2-thiophenecarboxylic acid]
Conditions | vapor or sublimation pressure
364.15 K | 0.00011 kPa and 0.000108 kPa and 0.000105 kPa
366.18 K | 0.000133 kPa and 0.000135 kPa and 0.000129 kPa
368.18 K | 0.000163 kPa and 0.00016 kPa
370.15 K | 0.000205 kPa and 0.0002 kPa and 0.000208 kPa
372.17 K | 0.000252 kPa and 0.00025 kPa and 0.000244 kPa
374.17 K | 0.000303 kPa and 0.000307 kPa and 0.000298 kPa
376.15 K | 0.000392 kPa and 0.000387 kPa and 0.000376 kPa
378.17 K | 0.000471 kPa and 0.000472 kPa and 0.000451 kPa
380.18 K | 0.000578 kPa and 0.000568 kPa and 0.000548 kPa
382.18 K | 0.000707 kPa and 0.000698 kPa and 0.000683 kPa
384.18 K | 0.000819 kPa and 0.000846 kPa and 0.000816 kPa
386.17 K | 0.001019 kPa and 0.001018 kPa and 0.000988 kPa
